Key:
Test in all cases: relative viability (nuclei count vs DMSO), 5 days (fraction); higher = more cells survive
[1] = compound: COC1=CC=C(C=C1)CN2C=CC3=C2C=C(C=C3)C(=O)NO + NC(=O)Nc1cc(-c2cccc(F)c2)sc1C(=O)N[C@H]1CCCNC1 [AZD7762] (partner 0.2 µM)
In short: (§1)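 One day after seeding in 1536-well plates, lung cancer cell lines were dosed by pin tool. Dosing was either single-drug or a fixed anchor-drug dose plus five library-drug doses (not always all listed) in √10 steps. After 5 days, nuclei were stained in one fix-and-stain step and counted on 4× images, and relative viability is the nuclei count of treated wells over that of vehicle wells, given as the median of duplicate plates.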

[2] = compound: COC1=CC=C(C=C1)CN2C=CC3=C2C=C(C=C3)C(=O)NO + O=C(c1cc(Cc2n[nH]c(=O)c3ccccc23)ccc1F)N1CCN(C(=O)C2CC2)CC1 [Olaparib] (partner 8 µM)
In short: as §1

[3] = compound: C[C@]1(c2nc3c(C(N)=O)cccc3[nH]2)CCCN1 [Veliparib] + COc1cc2c(Oc3ccc(NC(=O)C4(C(=O)Nc5ccc(F)cc5)CC4)cc3F)ccnc2cc1OCCCN1CCOCC1 [Foretinib] (partner 0.25 µM)
In short: as §1

[4] = compound: C[C@]1(c2nc3c(C(N)=O)cccc3[nH]2)CCCN1 [Veliparib] + C[C@@H](Oc1cc(-c2cnn(C3CCNCC3)c2)cnc1N)c1c(Cl)ccc(F)c1Cl [Crizotinib] (partner 1 µM)
In short: as §1

For NCI-H838, the relative viability ([1]; first compound 0.08 µM) was 0.694, the relative viability ([1]; first compound 0.253 µM) was 0.981 and the relative viability ([1]; first compound 0.8 µM) was 0.949. For the same cell line, the relative viability ([1]; first compound 2.53 µM) was 0.967, the relative viability ([1]; first compound 8 µM) was 0.909 and the relative viability ([2]; first compound 0.08 µM) was 0.622. It also gave a relative viability ([2]; first compound 0.253 µM) of 0.843, a relative viability ([2]; first compound 0.8 µM) of 0.796 and a relative viability ([2]; first compound 2.53 µM) of 0.735. For the same cell line, the relative viability ([2]; first compound 8 µM) was 0.696, the relative viability ([3]; first compound 0.02 µM) was 1.09 and the relative viability ([3]; first compound 0.06325 µM) was 0.987. It also gave a relative viability ([3]; first compound 0.2 µM) of 1.04, a relative viability ([3]; first compound 0.6325 µM) of 0.967 and a relative viability ([3]; first compound 2 µM) of 1.06. For the same cell line, the relative viability ([4]; first compound 0.02 µM) was 0.859, the relative viability ([4]; first compound 0.06325 µM) was 0.9 and the relative viability ([4]; first compound 0.2 µM) was 0.851. For the same cell line, the relative viability ([4]; first compound 0.6325 µM) was 0.83 and the relative viability ([4]; first compound 2 µM) was 0.895.

NCI-H1355 was tested, and the relative viability ([1]; first compound 0.08 µM) was 0.392, the relative viability ([1]; first compound 0.253 µM) was 0.817 and the relative viability ([1]; first compound 0.8 µM) was 0.745. It also gave a relative viability ([1]; first compound 2.53 µM) of 0.761, a relative viability ([1]; first compound 8 µM) of 0.574 and a relative viability ([2]; first compound 0.08 µM) of 0.419. The relative viability ([2]; first compound 0.253 µM) was 0.807, the relative viability ([2]; first compound 0.8 µM) was 0.773 and the relative viability ([2]; first compound 2.53 µM) was 0.775. For the same cell line, the relative viability ([2]; first compound 8 µM) was 0.727, the relative viability ([3]; first compound 0.06325 µM) was 0.879 and the relative viability ([3]; first compound 0.2 µM) was 0.965. For the same cell line, the relative viability ([3]; first compound 0.6325 µM) was 0.932, the relative viability ([3]; first compound 2 µM) was 0.982 and the relative viability ([4]; first compound 0.06325 µM) was 1.03. For the same cell line, the relative viability ([4]; first compound 0.2 µM) was 0.996, the relative viability ([4]; first compound 0.6325 µM) was 0.986 and the relative viability ([4]; first compound 2 µM) was 0.955.

In the case of NCI-H1437, the relative viability ([1]; first compound 0.08 µM) is reported as 1.02, the relative viability ([1]; first compound 0.253 µM) is reported as 1.13 and the relative viability ([1]; first compound 0.8 µM) is reported as 1.03. The relative viability ([1]; first compound 2.53 µM) was 1.13, the relative viability ([1]; first compound 8 µM) was 1.1 and the relative viability ([2]; first compound 0.08 µM) was 0.603. It also gave a relative viability ([2]; first compound 0.253 µM) of 0.635, a relative viability ([2]; first compound 0.8 µM) of 0.626 and a relative viability ([2]; first compound 2.53 µM) of 0.676. The relative viability ([2]; first compound 8 µM) was 0.618, the relative viability ([3]; first compound 0.02 µM) was 1.12 and the relative viability ([3]; first compound 0.06325 µM) was 1.17. The relative viability ([3]; first compound 0.2 µM) was 1.2, the relative viability ([3]; first compound 0.6325 µM) was 1.24 and the relative viability ([3]; first compound 2 µM) was 1.23. For the same cell line, the relative viability ([4]; first compound 0.02 µM) was 0.902, the relative viability ([4]; first compound 0.06325 µM) was 0.929 and the relative viability ([4]; first compound 0.2 µM) was 0.9. The relative viability ([4]; first compound 0.6325 µM) was 0.81 and the relative viability ([4]; first compound 2 µM) was 0.834.

With NCI-H1651 the relative viability ([1]; first compound 0.08 µM) was 0.414, the relative viability ([1]; first compound 0.253 µM) was 0.437 and the relative viability ([1]; first compound 0.8 µM) was 0.394. The relative viability ([1]; first compound 2.53 µM) was 0.406, the relative viability ([1]; first compound 8 µM) was 0.369 and the relative viability ([2]; first compound 0.08 µM) was 0.168. For the same cell line, the relative viability ([2]; first compound 0.253 µM) was 0.158, the relative viability ([2]; first compound 0.8 µM) was 0.194 and the relative viability ([2]; first compound 2.53 µM) was 0.182. For the same cell line, the relative viability ([2]; first compound 8 µM) was 0.179, the relative viability ([3]; first compound 0.02 µM) was 0.793 and the relative viability ([3]; first compound 0.06325 µM) was 0.74. The relative viability ([3]; first compound 0.2 µM) was 0.762, the relative viability ([3]; first compound 0.6325 µM) was 0.724 and the relative viability ([3]; first compound 2 µM) was 0.692. The relative viability ([4]; first compound 0.02 µM) was 0.926, the relative viability ([4]; first compound 0.06325 µM) was 0.853 and the relative viability ([4]; first compound 0.2 µM) was 0.805. It also gave a relative viability ([4]; first compound 0.6325 µM) of 0.799 and a relative viability ([4]; first compound 2 µM) of 0.83.

NCI-H1666 was tested, and the relative viability ([1]; first compound 0.08 µM) was 0.799, the relative viability ([1]; first compound 0.253 µM) was 0.872 and the relative viability ([1]; first compound 0.8 µM) was 0.782. For the same cell line, the relative viability ([1]; first compound 2.53 µM) was 0.784, the relative viability ([1]; first compound 8 µM) was 0.765 and the relative viability ([2]; first compound 0.08 µM) was 0.746. For the same cell line, the relative viability ([2]; first compound 0.253 µM) was 0.737, the relative viability ([2]; first compound 0.8 µM) was 0.745 and the relative viability ([2]; first compound 2.53 µM) was 0.682. The relative viability ([2]; first compound 8 µM) was 0.818, the relative viability ([3]; first compound 0.02 µM) was 1.01 and the relative viability ([3]; first compound 0.06325 µM) was 0.96. For the same cell line, the relative viability ([3]; first compound 0.2 µM) was 0.997, the relative viability ([3]; first compound 0.6325 µM) was 0.895 and the relative viability ([3]; first compound 2 µM) was 0.964. It also gave a relative viability ([4]; first compound 0.02 µM) of 0.94, a relative viability ([4]; first compound 0.06325 µM) of 0.826 and a relative viability ([4]; first compound 0.2 µM) of 1.03. It also gave a relative viability ([4]; first compound 0.6325 µM) of 0.995 and a relative viability ([4]; first compound 2 µM) of 1.07.

NCI-H1703 showed a relative viability ([1]; first compound 0.08 µM) of 0.176, a relative viability ([1]; first compound 0.253 µM) of 0.167 and a relative viability ([1]; first compound 0.8 µM) of 0.146. The relative viability ([1]; first compound 2.53 µM) was 0.123, the relative viability ([1]; first compound 8 µM) was 0.121 and the relative viability ([2]; first compound 0.253 µM) was 0.581. It also gave a relative viability ([2]; first compound 0.8 µM) of 0.817, a relative viability ([2]; first compound 2.53 µM) of 0.491 and a relative viability ([2]; first compound 8 µM) of 0.46. For the same cell line, the relative viability ([3]; first compound 0.2 µM) was 0.42, the relative viability ([3]; first compound 0.6325 µM) was 0.321 and the relative viability ([3]; first compound 2 µM) was 0.355. The relative viability ([4]; first compound 0.02 µM) was 0.835, the relative viability ([4]; first compound 0.06325 µM) was 0.76 and the relative viability ([4]; first compound 0.2 µM) was 1.06. It also gave a relative viability ([4]; first compound 0.6325 µM) of 0.778 and a relative viability ([4]; first compound 2 µM) of 0.75.

NCI-H1734 showed a relative viability ([1]; first compound 0.253 µM) of 0.612, a relative viability ([1]; first compound 0.8 µM) of 0.559 and a relative viability ([1]; first compound 2.53 µM) of 0.567. It also gave a relative viability ([1]; first compound 8 µM) of 0.481, a relative viability ([2]; first compound 0.253 µM) of 0.325 and a relative viability ([2]; first compound 0.8 µM) of 0.63. It also gave a relative viability ([2]; first compound 2.53 µM) of 0.55, a relative viability ([2]; first compound 8 µM) of 0.676 and a relative viability ([3]; first compound 0.02 µM) of 0.797. For the same cell line, the relative viability ([3]; first compound 0.06325 µM) was 0.85, the relative viability ([3]; first compound 0.2 µM) was 0.886 and the relative viability ([3]; first compound 0.6325 µM) was 0.832. The relative viability ([3]; first compound 2 µM) was 0.836, the relative viability ([4]; first compound 0.02 µM) was 0.701 and the relative viability ([4]; first compound 0.06325 µM) was 0.641. The relative viability ([4]; first compound 0.2 µM) was 0.728, the relative viability ([4]; first compound 0.6325 µM) was 0.623 and the relative viability ([4]; first compound 2 µM) was 0.682.

With NCI-H1755 the relative viability ([1]; first compound 0.08 µM) was 0.395, the relative viability ([1]; first compound 0.253 µM) was 0.439 and the relative viability ([1]; first compound 0.8 µM) was 0.497. It also gave a relative viability ([1]; first compound 2.53 µM) of 0.516, a relative viability ([1]; first compound 8 µM) of 0.35 and a relative viability ([2]; first compound 0.08 µM) of 0.77. It also gave a relative viability ([2]; first compound 0.253 µM) of 0.89, a relative viability ([2]; first compound 0.8 µM) of 0.831 and a relative viability ([2]; first compound 2.53 µM) of 0.955. For the same cell line, the relative viability ([2]; first compound 8 µM) was 0.867, the relative viability ([3]; first compound 0.02 µM) was 0.947 and the relative viability ([3]; first compound 0.06325 µM) was 0.915. For the same cell line, the relative viability ([3]; first compound 0.2 µM) was 0.935, the relative viability ([3]; first compound 0.6325 µM) was 0.893 and the relative viability ([3]; first compound 2 µM) was 0.91. For the same cell line, the relative viability ([4]; first compound 0.02 µM) was 0.84, the relative viability ([4]; first compound 0.06325 µM) was 0.853 and the relative viability ([4]; first compound 0.2 µM) was 0.794. For the same cell line, the relative viability ([4]; first compound 0.6325 µM) was 0.832 and the relative viability ([4]; first compound 2 µM) was 0.805.

For NCI-H1915, the relative viability ([1]; first compound 0.08 µM) was 0.494, the relative viability ([1]; first compound 0.253 µM) was 0.712 and the relative viability ([1]; first compound 0.8 µM) was 0.676. It also gave a relative viability ([1]; first compound 2.53 µM) of 0.705, a relative viability ([1]; first compound 8 µM) of 0.606 and a relative viability ([2]; first compound 0.08 µM) of 0.233. It also gave a relative viability ([2]; first compound 0.253 µM) of 0.26, a relative viability ([2]; first compound 0.8 µM) of 0.234 and a relative viability ([2]; first compound 2.53 µM) of 0.259. It also gave a relative viability ([2]; first compound 8 µM) of 0.24, a relative viability ([3]; first compound 0.02 µM) of 1.09 and a relative viability ([3]; first compound 0.06325 µM) of 0.975. The relative viability ([3]; first compound 0.2 µM) was 1.03, the relative viability ([3]; first compound 0.6325 µM) was 0.92 and the relative viability ([3]; first compound 2 µM) was 0.969. It also gave a relative viability ([4]; first compound 0.02 µM) of 0.866, a relative viability ([4]; first compound 0.06325 µM) of 0.869 and a relative viability ([4]; first compound 0.2 µM) of 0.803. The relative viability ([4]; first compound 0.6325 µM) was 0.754 and the relative viability ([4]; first compound 2 µM) was 0.771.
